According to US7695930B2, “Method for the detection, identification and/or quantification of microoganisms with peptidase activity using phenoxazinone derivatives as enzyme substrates” (Biomerieux, priority 2003, dated 2010):

Legend:
Assay in all cases: Leucine-peptidase detection on agar medium (Example 11); as to color of the colony: key: B corresponds to fluorescent blue; R corresponds to pink
Assay type in all cases: cell-based
Enterobacter cloaccae = system: Enterobacter cloaccae; as to color of the colony: key: B corresponds to fluorescent blue; R corresponds to pink
Description: (§1) The detection medium was prepared by mixing 1.4 g of biogelytone (bioMérieux), 0.84 g of meat extract (bioMérieux), 2.24 g of NaCl (Merck), 280 μl of a solution of IPTG (isopropylthio-β-D-galactopyranoside, BIOSYNTH) in water (concentration 10 g/l) and 4.2 g of European agar (bioMérieux).
(§2) The substrate of the invention obtained in Example 2, in which the amino acid is leucine (leucine-9-aminobenzo[a]phenoxazin-5-one or Leu-ABP), or else a substrate of the prior art, which is leucine-aminomethylcoumarin (Leu-AMC, BACHEM), was then added in the following way: 280 ml of osmosed water were added to the medium, and the mixture was melted in a waterbath at 100° C. The mixture was autoclaved for 15 min at 121° C. and cooled to 50° C. in a waterbath.
(§3) The medium was then poured into Petri dishes.
(§4) The coloration of these colonies, the diffusion, and also the intensity of this coloration were noted.
(§5) The results were expressed as intensity of coloration using an arbitrary scale ranging from 0 to 4 as a basis and also as diffusion also using an arbitrary scale ranging from 0 to 4 as a basis.

Citrobacter freundii = system: Citrobacter freundii; as to color of the colony: key: B corresponds to fluorescent blue; R corresponds to pink
Description: as §1, §2, §3, §4, §5

Serratia marcescens = system: Serratia marcescens; as to color of the colony: key: B corresponds to fluorescent blue; R corresponds to pink
Description: as §1, §2, §3, §4, §5

Escherichia coli = system: Escherichia coli; as to color of the colony: key: B corresponds to fluorescent blue; R corresponds to pink
Description: as §1, §2, §3, §4, §5

Klebsellia pneumoniae = system: Klebsellia pneumoniae; as to color of the colony: key: B corresponds to fluorescent blue; R corresponds to pink
Description: as §1, §2, §3, §4, §5

Staphylococcus aureus = system: Staphylococcus aureus; as to color of the colony: key: B corresponds to fluorescent blue; R corresponds to pink
Description: as §1, §2, §3, §4, §5

leucine-9-aminobenzo[a]phenoxazin-5-one [Leu-ABP]
color of the colony (Enterobacter cloaccae; 24 h, 25 mg/l): R | growth diameter (Enterobacter cloaccae; 24 h, 25 mg/l): 0.7 mm | intensity of coloration, scale 0 to 4 (Enterobacter cloaccae; 24 h, 25 mg/l): 1.5 | color of the colony (Enterobacter cloaccae; 24 h, 50 mg/l): R | growth diameter (Enterobacter cloaccae; 24 h, 50 mg/l): 0.5 mm | intensity of coloration, scale 0 to 4 (Enterobacter cloaccae; 24 h, 50 mg/l): 2.5 | color of the colony (Enterobacter cloaccae; 24 h, 100 mg/l): R | growth diameter (Enterobacter cloaccae; 24 h, 100 mg/l): 1 mm | intensity of coloration, scale 0 to 4 (Enterobacter cloaccae; 24 h, 100 mg/l): 3 | color of the colony (Enterobacter cloaccae; 24 h, 200 mg/l): R | growth diameter (Enterobacter cloaccae; 24 h, 200 mg/l): 1.5 mm | intensity of coloration, scale 0 to 4 (Enterobacter cloaccae; 24 h, 200 mg/l): 3 | color of the colony (Enterobacter cloaccae; 24 h, 400 mg/l): R | growth diameter (Enterobacter cloaccae; 24 h, 400 mg/l): 1.5 mm | intensity of coloration, scale 0 to 4 (Enterobacter cloaccae; 24 h, 400 mg/l): 3 | color of the colony (Enterobacter cloaccae; 48 h, 25 mg/l): R | growth diameter (Enterobacter cloaccae; 48 h, 25 mg/l): 0.7 mm | intensity of coloration, scale 0 to 4 (Enterobacter cloaccae; 48 h, 25 mg/l): 2.5 | color of the colony (Enterobacter cloaccae; 48 h, 50 mg/l): R | growth diameter (Enterobacter cloaccae; 48 h, 50 mg/l): 0.5 mm | intensity of coloration, scale 0 to 4 (Enterobacter cloaccae; 48 h, 50 mg/l): 3 | color of the colony (Enterobacter cloaccae; 48 h, 100 mg/l): R | growth diameter (Enterobacter cloaccae; 48 h, 100 mg/l): 1.3 mm | intensity of coloration, scale 0 to 4 (Enterobacter cloaccae; 48 h, 100 mg/l): 3 | color of the colony (Enterobacter cloaccae; 48 h, 200 mg/l): R | growth diameter (Enterobacter cloaccae; 48 h, 200 mg/l): 1.5 mm | intensity of coloration, scale 0 to 4 (Enterobacter cloaccae; 48 h, 200 mg/l): 3 | color of the colony (Enterobacter cloaccae; 48 h, 400 mg/l): R | growth diameter (Enterobacter cloaccae; 48 h, 400 mg/l): 1.7 mm | intensity of coloration, scale 0 to 4 (Enterobacter cloaccae; 48 h, 400 mg/l): 3 | color of the colony (Citrobacter freundii; 24 h, 25 mg/l): R | growth diameter (Citrobacter freundii; 24 h, 25 mg/l): 0.7 mm | intensity of coloration, scale 0 to 4 (Citrobacter freundii; 24 h, 25 mg/l): 1.5 | color of the colony (Citrobacter freundii; 24 h, 50 mg/l): R | growth diameter (Citrobacter freundii; 24 h, 50 mg/l): 0.7 mm | intensity of coloration, scale 0 to 4 (Citrobacter freundii; 24 h, 50 mg/l): 1.5 | color of the colony (Citrobacter freundii; 24 h, 100 mg/l): R | growth diameter (Citrobacter freundii; 24 h, 100 mg/l): 0.7 mm | intensity of coloration, scale 0 to 4 (Citrobacter freundii; 24 h, 100 mg/l): 0.75 | color of the colony (Citrobacter freundii; 24 h, 200 mg/l): R | growth diameter (Citrobacter freundii; 24 h, 200 mg/l): 0.8 mm | intensity of coloration, scale 0 to 4 (Citrobacter freundii; 24 h, 200 mg/l): 1 | color of the colony (Citrobacter freundii; 24 h, 400 mg/l): R | growth diameter (Citrobacter freundii; 24 h, 400 mg/l): 0.7 mm | intensity of coloration, scale 0 to 4 (Citrobacter freundii; 24 h, 400 mg/l): 2 | color of the colony (Citrobacter freundii; 48 h, 25 mg/l): R | growth diameter (Citrobacter freundii; 48 h, 25 mg/l): 0.7 mm | intensity of coloration, scale 0 to 4 (Citrobacter freundii; 48 h, 25 mg/l): 2.5 | color of the colony (Citrobacter freundii; 48 h, 50 mg/l): R | growth diameter (Citrobacter freundii; 48 h, 50 mg/l): 0.7 mm | intensity of coloration, scale 0 to 4 (Citrobacter freundii; 48 h, 50 mg/l): 2.5 | color of the colony (Citrobacter freundii; 48 h, 100 mg/l): R | growth diameter (Citrobacter freundii; 48 h, 100 mg/l): 0.7 mm | intensity of coloration, scale 0 to 4 (Citrobacter freundii; 48 h, 100 mg/l): 1.5 | color of the colony (Citrobacter freundii; 48 h, 200 mg/l): R | growth diameter (Citrobacter freundii; 48 h, 200 mg/l): 0.8 mm | intensity of coloration, scale 0 to 4 (Citrobacter freundii; 48 h, 200 mg/l): 2 | color of the colony (Citrobacter freundii; 48 h, 400 mg/l): R | growth diameter (Citrobacter freundii; 48 h, 400 mg/l): 0.7 mm | intensity of coloration, scale 0 to 4 (Citrobacter freundii; 48 h, 400 mg/l): 2 | color of the colony (Serratia marcescens; 24 h, 25 mg/l): R | growth diameter (Serratia marcescens; 24 h, 25 mg/l): 0.5 mm | intensity of coloration, scale 0 to 4 (Serratia marcescens; 24 h, 25 mg/l): 0.5 | color of the colony (Serratia marcescens; 24 h, 50 mg/l): R | growth diameter (Serratia marcescens; 24 h, 50 mg/l): 0.4 mm | intensity of coloration, scale 0 to 4 (Serratia marcescens; 24 h, 50 mg/l): 1 | color of the colony (Serratia marcescens; 24 h, 100 mg/l): R | growth diameter (Serratia marcescens; 24 h, 100 mg/l): 0.4 mm | intensity of coloration, scale 0 to 4 (Serratia marcescens; 24 h, 100 mg/l): 0.25 | growth diameter (Serratia marcescens; 24 h, 200 mg/l): 0.4 mm | growth diameter (Serratia marcescens; 24 h, 400 mg/l): 0.4 mm | color of the colony (Serratia marcescens; 48 h, 25 mg/l): R | growth diameter (Serratia marcescens; 48 h, 25 mg/l): 0.7 mm | intensity of coloration, scale 0 to 4 (Serratia marcescens; 48 h, 25 mg/l): 2.5 | color of the colony (Serratia marcescens; 48 h, 50 mg/l): R | growth diameter (Serratia marcescens; 48 h, 50 mg/l): 0.5 mm | intensity of coloration, scale 0 to 4 (Serratia marcescens; 48 h, 50 mg/l): 3 | color of the colony (Serratia marcescens; 48 h, 100 mg/l): R | growth diameter (Serratia marcescens; 48 h, 100 mg/l): 0.5 mm | intensity of coloration, scale 0 to 4 (Serratia marcescens; 48 h, 100 mg/l): 1.5 | color of the colony (Serratia marcescens; 48 h, 200 mg/l): R | growth diameter (Serratia marcescens; 48 h, 200 mg/l): 0.5 mm | intensity of coloration, scale 0 to 4 (Serratia marcescens; 48 h, 200 mg/l): 1 | color of the colony (Serratia marcescens; 48 h, 400 mg/l): R | growth diameter (Serratia marcescens; 48 h, 400 mg/l): 0.5 mm | intensity of coloration, scale 0 to 4 (Serratia marcescens; 48 h, 400 mg/l): 0.5 | color of the colony (Escherichia coli; 24 h, 25 mg/l): R | growth diameter (Escherichia coli; 24 h, 25 mg/l): 1.8 mm | intensity of coloration, scale 0 to 4 (Escherichia coli; 24 h, 25 mg/l): 0.0 | color of the colony (Escherichia coli; 24 h, 50 mg/l): R | growth diameter (Escherichia coli; 24 h, 50 mg/l): 1.7 mm | intensity of coloration, scale 0 to 4 (Escherichia coli; 24 h, 50 mg/l): 0.5 | color of the colony (Escherichia coli; 24 h, 100 mg/l): R | growth diameter (Escherichia coli; 24 h, 100 mg/l): 1.8 mm | intensity of coloration, scale 0 to 4 (Escherichia coli; 24 h, 100 mg/l): 0.0 | growth diameter (Escherichia coli; 24 h, 200 mg/l): 1.7 mm | color of the colony (Escherichia coli; 24 h, 400 mg/l): R | growth diameter (Escherichia coli; 24 h, 400 mg/l): 1.8 mm | intensity of coloration, scale 0 to 4 (Escherichia coli; 24 h, 400 mg/l): 0.75 | color of the colony (Escherichia coli; 48 h, 25 mg/l): R | growth diameter (Escherichia coli; 48 h, 25 mg/l): 1.8 mm | intensity of coloration, scale 0 to 4 (Escherichia coli; 48 h, 25 mg/l): 0.25 | color of the colony (Escherichia coli; 48 h, 50 mg/l): R | growth diameter (Escherichia coli; 48 h, 50 mg/l): 1.8 mm | intensity of coloration, scale 0 to 4 (Escherichia coli; 48 h, 50 mg/l): 0.5 | color of the colony (Escherichia coli; 48 h, 100 mg/l): R | growth diameter (Escherichia coli; 48 h, 100 mg/l): 1.8 mm | growth diameter (Escherichia coli; 48 h, 200 mg/l): 1.7 mm | growth diameter (Escherichia coli; 48 h, 400 mg/l): 1.8 mm | color of the colony (Klebsellia pneumoniae; 24 h, 25 mg/l): R | growth diameter (Klebsellia pneumoniae; 24 h, 25 mg/l): 1.8 mm | intensity of coloration, scale 0 to 4 (Klebsellia pneumoniae; 24 h, 25 mg/l): 1.5 | color of the colony (Klebsellia pneumoniae; 24 h, 50 mg/l): R | growth diameter (Klebsellia pneumoniae; 24 h, 50 mg/l): 1.7 mm | intensity of coloration, scale 0 to 4 (Klebsellia pneumoniae; 24 h, 50 mg/l): 1.5 | color of the colony (Klebsellia pneumoniae; 24 h, 100 mg/l): R | growth diameter (Klebsellia pneumoniae; 24 h, 100 mg/l): 1.7 mm | intensity of coloration, scale 0 to 4 (Klebsellia pneumoniae; 24 h, 100 mg/l): 1.5 | color of the colony (Klebsellia pneumoniae; 24 h, 200 mg/l): R | growth diameter (Klebsellia pneumoniae; 24 h, 200 mg/l): 1.7 mm | intensity of coloration, scale 0 to 4 (Klebsellia pneumoniae; 24 h, 200 mg/l): 2 | color of the colony (Klebsellia pneumoniae; 24 h, 400 mg/l): R | growth diameter (Klebsellia pneumoniae; 24 h, 400 mg/l): 1.7 mm | intensity of coloration, scale 0 to 4 (Klebsellia pneumoniae; 24 h, 400 mg/l): 2.5 | color of the colony (Klebsellia pneumoniae; 48 h, 25 mg/l): R | growth diameter (Klebsellia pneumoniae; 48 h, 25 mg/l): 1.8 mm | intensity of coloration, scale 0 to 4 (Klebsellia pneumoniae; 48 h, 25 mg/l): 2 | color of the colony (Klebsellia pneumoniae; 48 h, 50 mg/l): R | growth diameter (Klebsellia pneumoniae; 48 h, 50 mg/l): 1.7 mm | intensity of coloration, scale 0 to 4 (Klebsellia pneumoniae; 48 h, 50 mg/l): 2.5 | color of the colony (Klebsellia pneumoniae; 48 h, 100 mg/l): R | growth diameter (Klebsellia pneumoniae; 48 h, 100 mg/l): 1.7 mm | intensity of coloration, scale 0 to 4 (Klebsellia pneumoniae; 48 h, 100 mg/l): 1.5 | color of the colony (Klebsellia pneumoniae; 48 h, 200 mg/l): R | growth diameter (Klebsellia pneumoniae; 48 h, 200 mg/l): 1.7 mm | intensity of coloration, scale 0 to 4 (Klebsellia pneumoniae; 48 h, 200 mg/l): 1 | color of the colony (Klebsellia pneumoniae; 48 h, 400 mg/l): R | growth diameter (Klebsellia pneumoniae; 48 h, 400 mg/l): 1.8 mm | intensity of coloration, scale 0 to 4 (Klebsellia pneumoniae; 48 h, 400 mg/l): 1 | growth diameter (Staphylococcus aureus; 24 h, 25 mg/l): 0.3 mm | growth diameter (Staphylococcus aureus; 24 h, 50 mg/l): 0.2 mm | color of the colony (Staphylococcus aureus; 48 h, 25 mg/l): R | growth diameter (Staphylococcus aureus; 48 h, 25 mg/l): 0.7 mm | intensity of coloration, scale 0 to 4 (Staphylococcus aureus; 48 h, 25 mg/l): 0.25 | growth diameter (Staphylococcus aureus; 48 h, 50 mg/l): 0.2 mm
